Assay results reported in patent US12116343B2, “Inhibitors of APOL1 and methods of using same” (Vertex Pharmaceuticals Incorporated, priority 2020, dated 2024).

Molecular target: T1, APOL1 G1 Protein (Homo sapiens, UniProt O14791, I384M/S342G)
T1 sequence (O14791 28-398 S342G/I384M): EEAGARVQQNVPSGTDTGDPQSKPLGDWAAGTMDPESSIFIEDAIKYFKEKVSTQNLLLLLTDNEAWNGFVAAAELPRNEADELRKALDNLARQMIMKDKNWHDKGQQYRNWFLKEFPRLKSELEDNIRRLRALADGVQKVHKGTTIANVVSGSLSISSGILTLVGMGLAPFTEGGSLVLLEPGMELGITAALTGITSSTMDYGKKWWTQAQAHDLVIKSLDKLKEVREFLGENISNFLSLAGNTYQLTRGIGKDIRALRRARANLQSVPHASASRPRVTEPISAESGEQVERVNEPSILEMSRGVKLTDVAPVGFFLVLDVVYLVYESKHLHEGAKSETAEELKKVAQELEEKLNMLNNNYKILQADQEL
Assay: Trypanosoma brucei brucei lysis assay using APOL1 recombinant protein (AlamarBlue viability)
Assay type: cell-based
Details: Trypanosoma brucei brucei lysis, recombinant APOL1, AlamarBlue; read-out: Trypanosoma Assay (IC50)
Excerpt: Trypanosoma brucei brucei is a blood stream parasite to which human, gorillas and baboon are immune due to the presence of the APOL1 protein in their HDL particles. The protein is uptaken by the parasite via the TbHpHb receptor located in its flagellar pocket and is bonded by the Hpr protein contained in the HDL particles which triggers the receptor endocytosis by the parasite.
Following endocytosis, the formed vesicle containing the HDL particle matures from early to late endosome, and subsequently to lysosome. The concomitant pH change in the lumen of the vesicle triggers the insertion of the APOL1 protein into the membrane of the late endosome/lysosome and hereby triggers lysosomal membrane premeabilisation and as a further downstream event, trypanosome lysis. Trypanosoma brucei brucei is sensitive to lysis by all three APOL1 variants (G0, G1, and G2).
The Trypanosoma brucei brucei lysis assay is a lysis assay of the parasite using recombinant APOL1 protein variant followed by a fluorescent detection method of viability by the addition of AlamarBlue reagent to the assay well, a general metabolic redox indicator (AlamarBlue assay).
Briefly, the AlamarBlue active compound, the resazurin, a blue, water soluble, non-toxic and cell permeable molecule, which can be followed by absorbance, is reduced by various metabolic pathways into resorufin, a red compound which can be followed by either absorbance or fluorescence. The assay allows the calculation of the percent viability (percent of living Trypanosomes remaining in each well) at the end of a lysis relative to the untreated condition by interpolation of fluorescent values (FLU) on a standard curve with a known amount of seeded trypanosome/well.
Trypanosoma brucei brucei (ATCC, Cat. No. PRA-382) • Lister 427 VSG 221 bloodstream form.
Thaw/Expansion Media (ATCC Medium 2834 Modified HMI-9 Medium)
Assay Media (No Phenol Red/No FBS): Make on Day of Use
Hypoxanthine Stock (100×)-9 (10×)
Equipment • El-Clip Tip pipette 12 channel adjustable 2-125 μL, Cat. No. 4672070BT • ThermoFisher MultiDrop 384, Cat. No. 5840300 • Multidrop • Agilent Bravo, Cat. No. G5409A • Bravo • SpectraMax M5
Assay Ready Plates (ARPs) • ARPs comes in two formats: • […] final top concentration with a 2.5 fold dilution down. • […] final top concentration with a 3 fold dilution down. • Both have a 10 point Dose response. • 0.1% DMSO final in the Black Assay Plate. • Compounds are diluted 1000 fold in the Black Assay Plate. • Each plate is designed for 14 compounds in duplicate. • In the final Black Assay Plate:
Trypanosoma brucei brucei Culture
Step 2, Day 4 • Centrifuge at 800×g for 5 minutes at room temperature. • Resuspend in 1 mL media. • Make a 1:25 fold dilution (10 μL/240 μL media). • Count on a hemocytometer (after adding parasites). • Let sit for 1-2 minutes for the parasites to settle. • Count should be approximately 100 viable motile parasites/16 grid or approximately 25×10^6 parasites/flask. • Passage the parasites by adding 1×10^6 parasites/T75 flask in 20 mL media. • Passage the parasites by adding 2.33×10^6 parasites/T175 flask in 46.6 mL media. • For every T75 flask should make enough for approximately 1.5×384 well assay plates. • For every T175 flask should make enough for approximately 3.8×384 well assay plates.
Step 3, Day 6 • Centrifuge at 800×g for 5 minutes. • Resuspend in 3 mL assay media (No phenol red, no FBS) per 75 starting flask. • Resuspend in 7 mL assay media (No phenol red, no FBS) per 175 flask • Make a 1:25 fold dilution. • Count by hemocytometer. • Every T75 flask set up should have approximately 75×10^6 parasites/flask (verify doubling time=8.7 hrs±1 hr). • Every T175 flask set up should have approximately 175×10^6 parasites/flask (verify doubling time=8.7 hrs±1 hr). • Require 46×10^6 parasites per 384 well plate (at 120,000 parasites per well). Protocol B […]

SMILES | IC50 [µM]
CC(O)CNC(=O)[C@H]1C[C@H](c2c(-c3ccc(F)cc3)[nH]c3c(F)cc(F)cc32)C1 (stereo partly drawn) [Compound 167] | 0.25 to 1
O=C([C@H]1C[C@H](c2c(-c3ccc(F)cc3)[nH]c3c(F)cc(F)cc32)C1)N1CCC[C@@H](O)C1 [Compound 149] | < 0.25
O=C(NCc1cocn1)[C@H]1C[C@H](c2c(-c3ccc(F)cc3)[nH]c3c(F)cc(F)cc32)C1 [Compound 168] | < 0.25
O=C1C[C@@H](NC(=O)[C@H]2C[C@H](c3c(-c4ccc(F)cc4)[nH]c4c(F)cc(F)cc43)C2)C(=O)N1 [Compound 166] | < 0.25
CNC(=O)C(C)NC(=O)[C@H]1C[C@H](c2c(-c3ccc(F)cc3)[nH]c3c(F)cc(F)cc32)C1 (mixture of isomers) [Compound 9] | 0.25 to 1
O=C([C@H]1C[C@H](c2c(-c3ccc(F)cc3)[nH]c3c(F)cc(F)cc32)C1)N1C2CCC(C2)C1CO (stereo partly drawn) [Compound 97] | > 1
O=C(N[C@H](CO)C(F)(F)F)[C@H]1C[C@H](c2c(-c3ccc(F)cc3)[nH]c3c(F)cc(F)cc32)C1 [Compound 164] | < 0.25
O=C([C@H]1C[C@H](c2c(-c3ccc(F)cc3)[nH]c3c(F)cc(F)cc32)C1)N(CCO)c1cnccn1 [Compound 132] | > 1
O=C1C[C@H](NC(=O)[C@H]2C[C@H](c3c(-c4ccc(F)cc4)[nH]c4c(F)cc(F)cc43)C2)C(=O)N1 [Compound 165] | < 0.25
CC(C)(NC(=O)[C@H]1C[C@H](c2c(-c3ccc(F)cc3)[nH]c3c(F)cc(F)cc32)C1)C(N)=O [Compound 11] | < 0.25
O=C([C@H]1C[C@H](c2c(-c3ccc(F)cc3)[nH]c3c(F)cc(F)cc32)C1)N1CCN(CCO)CC1 [Compound 126] | > 1
CC1(C)CN(C(=O)[C@H]2C[C@H](c3c(-c4ccc(F)cc4)[nH]c4c(F)cc(F)cc43)C2)CCC1O (stereo partly drawn) [Compound 114] | > 1
NC(=O)[C@H]1CCCN1C(=O)[C@H]1C[C@H](c2c(-c3ccc(F)cc3)[nH]c3c(F)cc(F)cc32)C1 [Compound 153] | < 0.25
O=C(NC1CC(O)C1)[C@H]1C[C@H](c2c(-c3ccc(F)cc3)[nH]c3c(F)cc(F)cc32)C1 (stereo partly drawn) [Compound 5] | 0.25 to 1
O=C([C@H]1C[C@H](c2c(-c3ccc(F)cc3)[nH]c3c(F)cc(F)cc32)C1)N1CC(n2cccn2)C1 [Compound 96] | > 1
O=C([C@H]1C[C@H](c2c(-c3ccc(F)cc3)[nH]c3c(F)cc(F)cc32)C1)N1CCCC(O)C1 (stereo partly drawn) [Compound 150] | 0.25 to 1
C[C@@H](O)[C@@H](CO)NC(=O)[C@H]1C[C@H](c2c(-c3ccc(F)cc3)[nH]c3c(F)cc(F)cc32)C1 [Compound 160] | < 0.25
C[C@@H](O)[C@H](CO)NC(=O)[C@H]1C[C@H](c2c(-c3ccc(F)cc3)[nH]c3c(F)cc(F)cc32)C1 [Compound 155] | 0.25 to 1
O=C([C@H]1C[C@H](c2c(-c3ccc(F)cc3)[nH]c3c(F)cc(F)cc32)C1)N1CCN[C@H](CO)C1 [Compound 161] | 0.25 to 1
O=C([C@H]1C[C@H](c2c(-c3ccc(F)cc3)[nH]c3c(F)cc(F)cc32)C1)N1CCCC(CO)C1 (stereo partly drawn) [Compound 147] | > 1
O=C([C@H]1C[C@H](c2c(-c3ccc(F)cc3)[nH]c3c(F)cc(F)cc32)C1)N1CC(O)C(N2CCOCC2)C1 (stereo partly drawn) [Compound 106] | > 1
O=C([C@H]1C[C@H](c2c(-c3ccc(F)cc3)[nH]c3c(F)cc(F)cc32)C1)N1CCOC(CO)C1 (stereo partly drawn) [Compound 148] | > 1
O=C(NCCCO)[C@H]1C[C@H](c2c(-c3ccc(F)cc3)[nH]c3c(F)cc(F)cc32)C1 [Compound 104] | < 0.25

SMILES | IC50 [µM]
CC(O)C1CCCN(C(=O)[C@H]2C[C@H](c3c(-c4ccc(F)cc4)[nH]c4c(F)cc(F)cc43)C2)C1 (stereo partly drawn) [Compound 131] | > 1
O=C([C@H]1C[C@H](c2c(-c3ccc(F)cc3)[nH]c3c(F)cc(F)cc32)C1)N1CCCCC1CO (stereo partly drawn) [Compound 145] | 0.25 to 1
CC1(C)CN(C(=O)[C@H]2C[C@H](c3c(-c4ccc(F)cc4)[nH]c4c(F)cc(F)cc43)C2)CCN1C(=O)[C@H]1C[C@@](C)(O)C1 [Compound 130] | > 1
C[C@H](CO)N(C)C(=O)[C@H]1C[C@H](c2c(-c3ccc(F)cc3)[nH]c3c(F)cc(F)cc32)C1 [Compound 142] | < 0.25
O=C1CC[C@H](NC(=O)[C@H]2C[C@H](c3c(-c4ccc(F)cc4)[nH]c4c(F)cc(F)cc43)C2)C1 [Compound 139] | 0.25 to 1
NC(=O)[C@H]1CCN(C(=O)[C@H]2C[C@H](c3c(-c4ccc(F)cc4)[nH]c4c(F)cc(F)cc43)C2)C1 [Compound 154] | > 1
O=C([C@H]1C[C@H](c2c(-c3ccc(F)cc3)[nH]c3c(F)cc(F)cc32)C1)N1CCCC1CCO (stereo partly drawn) [Compound 101] | 0.25 to 1
O=C(NC1(CO)CCC1)[C@H]1C[C@H](c2c(-c3ccc(F)cc3)[nH]c3c(F)cc(F)cc32)C1 [Compound 6] | < 0.25
O=C([C@H]1C[C@H](c2c(-c3ccc(F)cc3)[nH]c3c(F)cc(F)cc32)C1)N1CCC(CO)(CO)CC1 [Compound 108] | > 1
O=C1NCC[C@@H]1NC(=O)[C@H]1C[C@H](c2c(-c3ccc(F)cc3)[nH]c3c(F)cc(F)cc32)C1 [Compound 162] | 0.25 to 1
O=C([C@H]1C[C@H](c2c(-c3ccc(F)cc3)[nH]c3c(F)cc(F)cc32)C1)N1CC(OCC2CCCO2)C1 (stereo partly drawn) [Compound 136] | > 1
O=C([C@H]1C[C@H](c2c(-c3ccc(F)cc3)[nH]c3c(F)cc(F)cc32)C1)N1CCOCC1CCO (stereo partly drawn) [Compound 113] | > 1
NC(=O)C1CCN(C(=O)[C@H]2C[C@H](c3c(-c4ccc(F)cc4)[nH]c4c(F)cc(F)cc43)C2)CC1 [Compound 133] | > 1
O=C1CC[C@@H](NC(=O)[C@H]2C[C@H](c3c(-c4ccc(F)cc4)[nH]c4c(F)cc(F)cc43)C2)C1 [Compound 157] | > 1
O=C([C@H]1C[C@H](c2c(-c3ccc(F)cc3)[nH]c3c(F)cc(F)cc32)C1)N1CCCC(CCO)C1 (stereo partly drawn) [Compound 128] | > 1
CC(C)[C@@H](CO)NC(=O)[C@H]1C[C@H](c2c(-c3ccc(F)cc3)[nH]c3c(F)cc(F)cc32)C1 [Compound 141] | 0.25 to 1
O=C([C@H]1C[C@H](c2c(-c3ccc(F)cc3)[nH]c3c(F)cc(F)cc32)C1)N1CC[C@H](CO)[C@H](O)C1 [Compound 100] | > 1
O=C([C@H]1C[C@H](c2c(-c3ccc(F)cc3)[nH]c3c(F)cc(F)cc32)C1)N1CC[C@H](CO)C1 [Compound 140] | > 1
O=C([C@H]1C[C@H](c2c(-c3ccc(F)cc3)[nH]c3c(F)cc(F)cc32)C1)N(CCOCCO)C1CCC1 [Compound 121] | > 1
O=C([C@H]1C[C@H](c2c(-c3ccc(F)cc3)[nH]c3c(F)cc(F)cc32)C1)N1CCOC(O)C1 (stereo partly drawn) [Compound 115] | < 0.25
O=C(NC(CO)CO)[C@H]1C[C@H](c2c(-c3ccc(F)cc3)[nH]c3c(F)cc(F)cc32)C1 [Compound 8] | < 0.25
O=C([C@H]1C[C@H](c2c(-c3ccc(F)cc3)[nH]c3c(F)cc(F)cc32)C1)N(CCO)CCCO [Compound 117] | 0.25 to 1
